Laboratory results: the NIST ThermoML archive (doi:10.1021/je060271a)
Values joined by “and” are separate entries in the source; they are usually repeats but may differ in a detail not shown here. Equal values may be shown once. ± gives the expanded uncertainty stated by the source.

Conditions: Liquid, Vibrating tube method

## CCCCCC(=O)OCC(COC(=O)CCCCC)(COC(=O)CCCCC)COC(=O)CCCCC [pentaerythritol tetrahexanoate]
283.14 K, 6785.3 kPa
  mass density: 1008.1 ± 1.2 kg/m3
283.14 K, 6787.6 kPa
  mass density: 1008 ± 1.2 kg/m3 and 1008.2 ± 1.2 kg/m3
283.14 K, 6787.7 kPa
  mass density: 1008.1 ± 1.2 kg/m3
283.14 K, 6787.9 kPa
  mass density: 1008.1 ± 1.2 kg/m3 and 1008 ± 1.2 kg/m3
283.14 K, 30862 kPa
  mass density: 1021 ± 1.2 kg/m3
283.14 K, 30898 kPa
  mass density: 1021 ± 1.2 kg/m3
283.14 K, 30915 kPa
  mass density: 1021 ± 1.2 kg/m3
283.14 K, 32175 kPa
  mass density: 1021.8 ± 1.2 kg/m3
283.14 K, 32194 kPa
  mass density: 1021.7 ± 1.2 kg/m3
283.14 K, 32218 kPa
  mass density: 1021.7 ± 1.2 kg/m3
283.14 K, 32238 kPa
  mass density: 1021.8 ± 1.2 kg/m3
283.14 K, 32258 kPa
  mass density: 1021.8 ± 1.2 kg/m3
283.14 K, 32282 kPa
  mass density: 1021.8 ± 1.2 kg/m3
283.14 K, 32303 kPa
  mass density: 1021.7 ± 1.2 kg/m3
283.14 K, 32324 kPa
  mass density: 1021.8 ± 1.2 kg/m3
283.15 K, 90.7 kPa
  mass density: 1004 ± 1.2 kg/m3
283.15 K, 90.8 kPa
  mass density: 1004.1 ± 1.2 kg/m3
283.15 K, 90.9 kPa
  mass density: 1004.2 ± 1.2 kg/m3
283.15 K, 96 kPa
  mass density: 1004.2 ± 1.2 kg/m3
283.15 K, 96.1 kPa
  mass density: 1004.2 ± 1.2 kg/m3
283.15 K, 96.4 kPa
  mass density: 1004.1 ± 1.2 kg/m3 and 1004.2 ± 1.2 kg/m3
283.15 K, 96.6 kPa
  mass density: 1004.2 ± 1.2 kg/m3
283.15 K, 96.7 kPa
  mass density: 1004.2 ± 1.2 kg/m3
283.15 K, 96.9 kPa
  mass density: 1004.2 ± 1.2 kg/m3
283.15 K, 97.3 kPa
  mass density: 1004.1 ± 1.2 kg/m3
283.15 K, 97.4 kPa
  mass density: 1004.1 ± 1.2 kg/m3 and 1004.2 ± 1.2 kg/m3
283.15 K, 97.6 kPa
  mass density: 1004 ± 1.2 kg/m3 and 1004.2 ± 1.2 kg/m3
283.15 K, 99.3 kPa
  mass density: 1004.2 ± 1.2 kg/m3
283.15 K, 101.4 kPa
  mass density: 1004.2 ± 1.2 kg/m3
283.15 K, 101.6 kPa
  mass density: 1004.2 ± 1.2 kg/m3
283.15 K, 102.1 kPa
  mass density: 1004.2 ± 1.2 kg/m3
283.15 K, 102.2 kPa
  mass density: 1004.1 ± 1.2 kg/m3 and 1004.2 ± 1.2 kg/m3
283.15 K, 106.2 kPa
  mass density: 1004.2 ± 1.2 kg/m3
283.15 K, 106.9 kPa
  mass density: 1004.1 ± 1.2 kg/m3
283.15 K, 107 kPa
  mass density: 1004.2 ± 1.2 kg/m3
283.15 K, 107.4 kPa
  mass density: 1004 ± 1.2 kg/m3
283.15 K, 107.5 kPa
  mass density: 1004.1 ± 1.2 kg/m3
283.15 K, 107.7 kPa
  mass density: 1004.2 ± 1.2 kg/m3
283.15 K, 107.9 kPa
  mass density: 1004.2 ± 1.2 kg/m3 and 1004.3 ± 1.2 kg/m3
283.15 K, 111.3 kPa
  mass density: 1004.1 ± 1.2 kg/m3
283.15 K, 111.5 kPa
  mass density: 1004.2 ± 1.2 kg/m3
283.15 K, 111.7 kPa
  mass density: 1004.3 ± 1.2 kg/m3
283.15 K, 112 kPa
  mass density: 1004.2 ± 1.2 kg/m3
283.15 K, 112.3 kPa
  mass density: 1004.1 ± 1.2 kg/m3
283.15 K, 112.4 kPa
  mass density: 1004.2 ± 1.2 kg/m3
283.15 K, 112.5 kPa
  mass density: 1004.1 ± 1.2 kg/m3
283.15 K, 112.7 kPa
  mass density: 1004.2 ± 1.2 kg/m3 and 1004.1 ± 1.2 kg/m3
283.15 K, 113 kPa
  mass density: 1004.1 ± 1.2 kg/m3 and 1004.2 ± 1.2 kg/m3
283.15 K, 113.2 kPa
  mass density: 1004.3 ± 1.2 kg/m3 and 1004.1 ± 1.2 kg/m3
283.15 K, 113.4 kPa
  mass density: 1004.2 ± 1.2 kg/m3
283.15 K, 113.5 kPa
  mass density: 1004.1 ± 1.2 kg/m3
283.15 K, 113.9 kPa
  mass density: 1004.2 ± 1.2 kg/m3
283.15 K, 114.1 kPa
  mass density: 1004.2 ± 1.2 kg/m3
283.15 K, 114.4 kPa
  mass density: 1004.1 ± 1.2 kg/m3
283.15 K, 114.6 kPa
  mass density: 1004.1 ± 1.2 kg/m3
283.15 K, 114.8 kPa
  mass density: 1004.3 ± 1.2 kg/m3
283.15 K, 114.9 kPa
  mass density: 1004.2 ± 1.2 kg/m3 and 1004.1 ± 1.2 kg/m3
283.15 K, 115.1 kPa
  mass density: 1004.2 ± 1.2 kg/m3
283.15 K, 115.4 kPa
  mass density: 1004.2 ± 1.2 kg/m3
283.15 K, 115.5 kPa
  mass density: 1004.2 ± 1.2 kg/m3
283.15 K, 115.8 kPa
  mass density: 1004.2 ± 1.2 kg/m3
283.15 K, 116 kPa
  mass density: 1004.2 ± 1.2 kg/m3
283.15 K, 116.3 kPa
  mass density: 1004.2 ± 1.2 kg/m3
283.15 K, 116.5 kPa
  mass density: 1004.1 ± 1.2 kg/m3
283.15 K, 116.7 kPa
  mass density: 1004.2 ± 1.2 kg/m3
283.15 K, 116.8 kPa
  mass density: 1004.2 ± 1.2 kg/m3
283.15 K, 117.2 kPa
  mass density: 1004.1 ± 1.2 kg/m3
283.15 K, 117.3 kPa
  mass density: 1004.2 ± 1.2 kg/m3 and 1004.3 ± 1.2 kg/m3
283.15 K, 117.5 kPa
  mass density: 1004.2 ± 1.2 kg/m3
283.15 K, 117.9 kPa
  mass density: 1004.2 ± 1.2 kg/m3 and 1004.3 ± 1.2 kg/m3
283.15 K, 118 kPa
  mass density: 1004.1 ± 1.2 kg/m3
283.15 K, 118.2 kPa
  mass density: 1004.2 ± 1.2 kg/m3
